The nature of test [1]: Inhibition of C57BL/6 mouse synaptosomal choline transporter. Also noted: species or system C57BL6.
A further test is filed under the species Mus musculus. The test is described as follows: Inhibition of C57BL/6 mouse nicotinic acetyl choline receptor. The note with it: C57BL6.

Active and inactive are the calls of the source. The rule behind the calls is not given here.

`C[N+](C)(C)CCCCCC[N+](C)(C)C` [HEXAMETHONIUM CHLORIDE]: the IC50 (commonly the point on the concentration scale where inhibition reaches its midpoint) in test [1] stood at 130 µM.

`C[N+](C)(C)CCCCCCCCCC[N+](C)(C)C` [DECAMETHONIUM] returned an IC50 in test [1] of 1.5 µM.

Turning to `C[N+](C)(CCCCCCCCCC[N+](C)(C)Cc1cccc(O)c1O)Cc1cccc(O)c1O`, in test [1], the IC50 is 21 µM; the Ki (commonly the dissociation constant of the complex between target and ligand, obtained from inhibition or displacement) is 31 µM. In addition, in the test filed under Mus musculus, the outcome was Active.

For the compound `C[N+](C)(CCCCCC[N+](C)(C)Cc1cccc(O)c1O)Cc1cccc(O)c1O`, in test [1], the concentration for half-maximal inhibition (IC50) is 76 µM and the Ki turned out to be 73 µM. In addition, in the test listed under Mus musculus, the result was Active.

The values above are taken from ChEMBL document CHEMBL1137489, “Inhibition of choline transport by redox-active cholinomimetic bis-catechol reagents” (Bioorg Med Chem, 2007).
